Experimental findings from US20260285853A1, “COMPOUNDS AND METHODS FOR MODULATING SPLICING” (REMIX THERAPEUTICS INC., priority 2023, published 2026) are described below.

Some results are limits rather than exact numbers.

For one test, the system named is HTT mRNA. Briefly: Splicing RT-qPCR assay, canonical (CJ) and alternative (AJ) junction mRNA, K562 cells. Type of test: cell-based. As to conditions: Homo sapiens, K562.3 cells, 24 hours; for AC50: read-out: HTT AJ (AC50, increase in AJ mRNA); for IC50: read-out: HTT CJ (IC50, decrease in CJ mRNA). The method, boiled down: (§1)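 RT-qPCR read-out: CJ and AJ isoforms quantified by ΔCt against GAPDH or GUSB, normalized to DMSO, and converted to % response. Windows in 96-well format (50,000 cells/well) were 4.0 ΔCt for MYB-CJ and 3 for MYB-AJ, and 3.5 ΔCt for HTT-CJ and 9 for HTT-AJ. Cells were dosed for 24 h, top 10 uM.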
For orientation: Real-time PCR tracks product formation cycle by cycle.

For the next test, the system named is MYB mRNA. Described as above. Type of test: cell-based. As to conditions: Homo sapiens, K562.3 cells, 24 hours; for AC50: read-out: MYB AJ (AC50, increase in AJ mRNA); for IC50: read-out: MYB CJ (IC50, decrease in CJ mRNA). The method, boiled down: as §1

With `CN[C@H]1C[C@@H](C)N(c2ccc(C(=O)Nc3cc(F)c4nc(C)cn4c3)c3nn(C)cc23)C1` (single isomer, unassigned) [Compound 128], in the test on HTT mRNA, the concentration at half-maximal activity (AC50) (usually the midpoint of the concentration-response curve, whichever way the signal moves) lay within 1 to 10 µM and the IC50 (usually the midpoint of a concentration-inhibition curve) lay in the range of 0.1 to 1 µM. Also, in the test on MYB mRNA, the AC50 lay within 0.1 to 1 µM and the concentration for half-maximal inhibition (IC50) was in the range of 0.1 to 1 µM.
As to `CN[C@H]1CCN(c2ccc(C(=O)Nc3cc(F)c4nc(C)cn4c3)c3nn(C)cc23)[C@H]1C` (single isomer, unassigned) [Compound 152], in the test on HTT mRNA, the half-maximal activity concentration (AC50) was > 10 µM and the IC50 was > 10 µM. In addition, in the test on MYB mRNA, the AC50 lay within 1 to 10 µM and the IC50 was in the range of 1 to 10 µM.
As to `CN[C@@H]1CCN(c2ccc(C(=O)Nc3cc(F)c4nc(C)cn4c3)c3nn(C)cc23)[C@@H]1C` (single isomer, unassigned) [Compound 153], in the test with HTT mRNA, the AC50 lay within 1 to 10 µM and the IC50 was 0.1 to 1 µM. In the test on MYB mRNA, the half-maximal activity concentration (AC50) was < 0.1 µM and the IC50 is < 0.1 µM.
Regarding `CN[C@H]1CCN(c2ccc(C(=O)Nc3cc(F)c4nc(C)cn4c3)c3nn(C)cc23)[C@@H]1C` (single isomer, unassigned) [Compound 154], the AC50 in the test on HTT mRNA was > 10 µM; with MYB mRNA, 0.1 to 1 µM. The half-maximal inhibitory concentration (IC50) in the test with HTT mRNA was > 10 µM; with MYB mRNA it was 0.1 to 1 µM.
As for `COCCN[C@@H]1CCN(c2ccc(C(=O)Nc3cc(F)c4nc(C)cn4c3)c3nn(C)cc23)C1` [Compound 113, N-(8-fluoro-2-methyl-imidazo[1,2-a]pyridin-6-yl)-4-[(3R)-3-(2-methoxyethylamino)pyrrolidin-1-yl]-2-methyl-indazole-7-carboxamide], in the test on HTT mRNA, the concentration at half-maximal activity (AC50) is > 10 µM and the IC50 was > 10 µM. In the test on MYB mRNA, the AC50 was 0.1 to 1 µM and the half-maximal inhibitory concentration (IC50) lay in the range of 0.1 to 1 µM.
As for `COCC1(N[C@H]2CCN(c3ccc(C(=O)Nc4cc(F)c5nc(C)cn5c4)c4nn(C)cc34)C2)CC1` [Compound 118, (S)—N-(8-fluoro-2-methylimidazo[1,2-a]pyridin-6-yl)-4-(3-((1-(methoxymethyl)cyclopropyl)amino)pyrrolidin-1-yl)-2-methyl-2H-indazole-7-carboxamide], in the test on HTT mRNA, the half-maximal activity concentration (AC50) is > 10 µM and the half-maximal inhibitory concentration (IC50) lay in the range of 1 to 10 µM. Also, in the test with MYB mRNA, the half-maximal activity concentration (AC50) fell in the range of 1 to 10 µM and the IC50 lay in the range of 1 to 10 µM.
As to `COCC1(N[C@@H]2CCN(c3ccc(C(=O)Nc4cc(F)c5nc(C)cn5c4)c4nn(C)cc34)C2)CC1` [Compound 119, (R)—N-(8-fluoro-2-methylimidazo[1,2-a]pyridin-6-yl)-4-(3-((1-(methoxymethyl)cyclopropyl)amino)-pyrrolidin-1-yl)-2-methyl-2H-indazole-7-carboxamide], in the test with HTT mRNA, the AC50 is > 10 µM and the half-inhibitory concentration (IC50) was in the range of 1 to 10 µM. For the same molecule, in the test with MYB mRNA, the concentration at half-maximal activity (AC50) was 0.1 to 1 µM and the IC50 lay within 0.1 to 1 µM.
Regarding `CN[C@@H]1C[C@@H](C)N(c2ccc(C(=O)Nc3cc(F)c4nc(C)cn4c3)c3nn(C)cc23)C1` [Compound 129, N-(8-fluoro-2-methyl-imidazo[1,2-a]pyridin-6-yl)-2-methyl-4-[(2R,4R)-2-methyl-4-(methylamino)pyrrol-idin-1-yl]indazole-7-carboxamide], the concentration at half-maximal activity (AC50) with HTT mRNA is 1 to 10 µM; in the test with MYB mRNA it was 0.1 to 1 µM. Besides, the IC50 with HTT mRNA fell in the range of 1 to 10 µM; in the test on MYB mRNA it was 0.1 to 1 µM.
In the case of `CCN[C@@H]1CCN(c2cc(O)c(C(=O)Nc3cc(F)c4nc(C)cn4c3)c3nn(C)cc23)C1` [Compound 144, 4-[3-(ethylamino)pyrrolidin-1-yl]-N-(8-fluoro-2-methyl-imidazo[1,2-a]pyridin-6-yl)-6-hydroxy-2-methyl-indazole-7-carboxamide], in the test on HTT mRNA, the AC50 was > 10 µM and the IC50 was > 10 µM. In the test on MYB mRNA, the half-maximal activity concentration (AC50) was < 0.1 µM and the IC50 was < 0.1 µM.
`CN[C@H]1CCN(c2c(O)cc(C(=O)Nc3cc(F)c4nc(C)cn4c3)c3nn(C)cc23)C1` [Compound 149, N-(8-fluoro-2-methyl-imidazo[1,2-a]pyridin-6-yl)-5-hydroxy-2-methyl-4-[(3S)-3-(methylamino)pyrrolidin-1-yl]-indazole-7-carboxamide]: in the test on HTT mRNA, the concentration at half-maximal activity (AC50) is > 10 µM and the IC50 lay within 1 to 10 µM. Further, in the test on MYB mRNA, the half-maximal activity concentration (AC50) lay within 1 to 10 µM and the IC50 lay within 1 to 10 µM.
For the molecule `CN[C@@H]1CCN(c2ccc(C(=O)Nc3cc(F)c4nc(C)cn4c3)c3nn(C)cc23)[C@H]1C` [Compound 155, N-(8-fluoro-2-methylimidazo-[1,2-a]pyridin-6-yl)-2-methyl-4-[(2S,3R)-2-methyl-3-(methylamino)-pyrrolidin-1-yl]indazole-7-carboxamide], the AC50 in the test on HTT mRNA and with MYB mRNA was > 10 µM each time. The IC50 with HTT mRNA is > 10 µM; with MYB mRNA it was 1 to 10 µM.
In the case of `Cc1cn2cc(NC(=O)c3c(F)cc(N4CC[C@H](NCC56CC(CO5)C6)C4)c4cn(C)nc34)cc(F)c2n1` [Compound 157, 6-fluoro-N-(8-fluoro-2-methyl-imidazo[1,2-a]pyridin-6-yl)-2-methyl-4-[(3S)-3-(2-oxabicyclo[2.1.1]hexan-1-ylmethylamino)pyrrolidin-1-yl]indazole-7-carboxamide], in the test on HTT mRNA, the AC50 was > 10 µM and the IC50 was > 10 µM. In the test with MYB mRNA, the AC50 is < 0.1 µM and the concentration for half-maximal inhibition (IC50) is 0.1 to 1 µM.
Consider `CN[C@H]1CCN(c2ccc(C(=O)Nc3cc(F)c4nc(C)cn4c3)c3c2nnn3C)C1` [Compound 160, N-(8-fluoro-2-methyl-imidazo[1,2-a]pyridin-6-yl)-3-methyl-7-[(3S)-3-(methylamino)-pyrrolidin-1-yl]benzotriazole-4-carboxamide], for which, in the test on HTT mRNA, the half-maximal activity concentration (AC50) is > 10 µM and the half-inhibitory concentration (IC50) is > 10 µM. Moreover, in the test with MYB mRNA, the AC50 was > 10 µM and the 50% inhibitory concentration (IC50) is > 10 µM.
Consider `CN[C@H]1CCN(c2ccc(C(=O)Nc3cc(F)c4nc(C)cn4c3)c3nn(C)nc23)C1` [Compound 163, (S)-N-(8-fluoro-2-methylimidazo-[1,2-a]pyridin-6-yl)-2-methyl-7-(3-(methylamino)pyrrolidin-1-yl)-2H-benzo[d]-[1,2,3]triazole-4-carboxamide], for which the AC50 in the test with HTT mRNA and with MYB mRNA was 0.1 to 1 µM throughout. Moreover, the half-inhibitory concentration (IC50) in the test with HTT mRNA and with MYB mRNA was 0.1 to 1 µM in each case.
For `CN[C@H]1CCN(c2ccc(C(=O)Nc3cc(F)c4nc(C)cn4c3)c3nnn(C)c23)C1` [Compound 166, (S)-N-(8-fluoro-2-methylimidazo-[1,2-a]pyridin-6-yl)-1-methyl-7-(3-(methylamino)pyrrolidin-1-yl)-1H-benzo[d]-[1,2,3]triazole-4-carboxamide], the AC50 with HTT mRNA was > 10 µM; with MYB mRNA, 0.1 to 1 µM. Also, the IC50 is > 10 µM in the test with HTT mRNA and 0.1 to 1 µM in the test on MYB mRNA.
Take `CCNC1CCN(c2ccc(C(=O)Nc3cc(OC)c4nc(C)cn4c3)c3nn(C)cc23)CC1` [Compound 175, 4-(4-(ethylamino)piperidin-1-yl)-N-(8-methoxy-2-methyl-imidazo-[1,2-a]pyridin-6-yl)-2-methyl-2H-indazole-7-carboxamide]: in the test with HTT mRNA, the AC50 lay within 1 to 10 µM and the concentration for half-maximal inhibition (IC50) was in the range of 0.1 to 1 µM. Besides, in the test on MYB mRNA, the AC50 was in the range of 0.1 to 1 µM and the IC50 lay in the range of 0.1 to 1 µM.
As for `CCNC1CCN(c2ccc(C(=O)Nc3ccc4nc(C)cn4c3)c3nn(C)cc23)CC1` [Compound 176, 4-[4-(ethylamino)-1-piperidyl]-2-methyl-N-(2-methylimidazo[1,2-a]pyridin-6-yl)-indazole-7-carboxamide], in the test with HTT mRNA, the AC50 was > 10 µM and the IC50 was in the range of 1 to 10 µM. Moreover, in the test with MYB mRNA, the AC50 is 0.1 to 1 µM and the half-maximal inhibitory concentration (IC50) is 0.1 to 1 µM.
With `CCNC1CCN(c2ccc(C(=O)Nc3cc(F)c4nc(C(C)C)cn4c3)c3nn(C)cc23)CC1` [Compound 177, 4-[4-(ethylamino)-1-piperidyl]-N-(8-fluoro-2-isopropyl-imidazo[1,2-a]pyridin-6-yl)-2-methyl-indazole-7-carboxamide], in the test on HTT mRNA, the AC50 was > 10 µM and the IC50 is 1 to 10 µM. For the same molecule, in the test on MYB mRNA, the AC50 is > 10 µM and the IC50 is > 10 µM.
For `CCNC1CCN(c2ccc(C(=O)Nc3cc4cn(C)nc4cc3OC)c3[nH]ccc23)CC1` [Compound 178, 4-[4-(ethylamino)-1-piperidyl]-N-(6-methoxy-2-methyl-indazol-5-yl)-1H-indole-7-carboxamide], in the test with HTT mRNA, the half-maximal activity concentration (AC50) is > 10 µM and the IC50 is > 10 µM. In the test with MYB mRNA, the AC50 was > 10 µM and the IC50 is > 10 µM.
Turning to `CNC1(C)CCN(c2cc(F)c(C(=O)Nc3cc(F)c4nc(C)cn4c3)c3nn(C)cc23)CC1` [Compound 179, 6-fluoro-N-(8-fluoro-2-methyl-imidazo[1,2-a]pyridin-6-yl)-2-methyl-4-[4-methyl-4-(methylamino)-1-piperidyl]indazole-7-carboxamide], the AC50 in the test on HTT mRNA and in the test on MYB mRNA was < 0.1 µM throughout. Further, the IC50 with HTT mRNA and in the test with MYB mRNA was < 0.1 µM in each case.
As for `CNC1(C)CCN(c2cc(F)c(C(=O)Nc3cn4cc(C)nc4c(F)c3OC)c3nn(C)cc23)CC1` [Compound 180, 6-fluoro-N-(8-fluoro-7-methoxy-2-methyl-imidazo[1,2-a]pyridin-6-yl)-2-methyl-4-[4-methyl-4-(methylamino)-1-piperidyl]indazole-7-carboxamide], in the test on HTT mRNA, the half-maximal activity concentration (AC50) was < 0.1 µM and the IC50 is < 0.1 µM. Also, in the test on MYB mRNA, the AC50 is < 0.1 µM and the concentration for half-maximal inhibition (IC50) was < 0.1 µM.
`CCNC1CCN(c2ccc(C(=O)Nc3cn4cc(C)nc(C)c4n3)c3nn(C)cc23)CC1` [Compound 181, N-(6,8-dimethylimidazo [1,2-a]pyrazin-2-yl)-4-[4-(ethylamino)-1-piperidyl]-2-methyl-indazole-7-carboxamide]: in the test on HTT mRNA, the concentration at half-maximal activity (AC50) lay in the range of 0.1 to 1 µM and the half-maximal inhibitory concentration (IC50) fell in the range of 0.1 to 1 µM. In the test with MYB mRNA, the AC50 is 0.1 to 1 µM and the 50% inhibitory concentration (IC50) lay within 0.1 to 1 µM.
